From ChEMBL document CHEMBL6087402, “Design, synthesis, and in vitro and in vivo biological evaluation of dihydroartemisinin derivatives as potent anti-cancer agents with ferroptosis-inducing and apoptosis-activating properties” (Eur J Med Chem, 2025)
pIC50: −log10 of the molar value.

Columns and labels:
Format in all cases: functional, cell-based
SW-620 = experiment: Anti-proliferative activity against human SW620 cells incubated for 72 hrs by MTT assay; settings: SW-620, 72 h
A549 = experiment: Anti-proliferative activity against human A549 cells incubated for 72 hrs by MTT assay; settings: A549, 72 h
HCT-116 = experiment: Anti-proliferative activity against human HCT-116 cells incubated for 72 hrs by MTT assay; settings: HCT-116, 72 h
Bel-7402 = experiment: Anti-proliferative activity against human Bel-7402 cells incubated for 72 hrs by MTT assay; settings: Bel-7402, 72 h

Structure (SMILES) | pIC50 (SW-620) | pIC50 (A549) | pIC50 (HCT-116) | pIC50 (Bel-7402)
C[C@@H]1CC[C@H]2[C@@H](C)C(OC(=O)c3ccc(Cn4ccc5ccc(F)cc54)cc3)O[C@@H]3O[C@@]4(C)CC[C@H]1[C@]32OO4 (some centres undefined) | 5.36 | 6.05 | 6.33 | < 5.00
C[C@@H]1CC[C@H]2[C@@H](C)C(OC(=O)c3cn(-c4ccc(Br)cc4)nn3)O[C@@H]3O[C@@]4(C)CC[C@H]1[C@]32OO4 (some centres undefined) | 5.13 | < 5.00 | 5.41 | < 5.00
C[C@@H]1CC[C@H]2[C@@H](C)C(OC(=O)CCc3nc(-c4ccc(Cl)c(Cl)c4)no3)O[C@@H]3O[C@@]4(C)CC[C@H]1[C@]32OO4 (some centres undefined) | < 5.00 | 5.04 | 5.67 | < 5.00
CCCCNC(=O)OC1O[C@@H]2O[C@@]3(C)CC[C@@H]4[C@H](C)CC[C@@H]([C@H]1C)[C@@]24OO3 (some centres undefined) | < 5.00 | < 5.00 | 5.45 | < 5.00
COc1ccc2[nH]cc(CCNC(=O)CCC(=O)OC3O[C@@H]4O[C@@]5(C)CC[C@@H]6[C@H](C)CC[C@@H]([C@H]3C)[C@@]46OO5)c2c1 (some centres undefined) | 5.14 | < 5.00 | 5.18 | < 5.00
C[C@@H]1CC[C@H]2[C@@H](C)C(OC(=O)NC(=O)c3ccccc3)O[C@@H]3O[C@@]4(C)CC[C@H]1[C@]32OO4 (some centres undefined) | < 5.00 | < 5.00 | 5.26 | < 5.00
C[C@@H]1CC[C@H]2[C@@H](C)C(OC(=O)c3cn(-c4ccccc4)nn3)O[C@@H]3O[C@@]4(C)CC[C@H]1[C@]32OO4 (some centres undefined) | 5.14 | < 5.00 | 5.47 | < 5.00
C[C@@H]1CC[C@H]2[C@@H](C)C(OC(=O)c3ccc(Cn4cc(Br)cn4)cc3)O[C@@H]3O[C@@]4(C)CC[C@H]1[C@]32OO4 (some centres undefined) | < 5.00 | 5.31 | 5.72 | 5.07
C[C@@H]1CC[C@H]2[C@@H](C)C(OC(=O)CCc3nc(-c4ccc(Cl)cc4)no3)O[C@@H]3O[C@@]4(C)CC[C@H]1[C@]32OO4 (some centres undefined) | < 5.00 | 5.17 | 5.43 | 5.15
C[C@@H]1CC[C@H]2[C@@H](C)C(OC(=O)CCC(=O)OCc3cn(-c4ccccc4)nn3)O[C@@H]3O[C@@]4(C)CC[C@H]1[C@]32OO4 (some centres undefined) | 5.75 | 5.19 | 5.62 | < 5.00
C[C@@H]1CC[C@H]2[C@@H](C)C(OC(=O)CCc3nc(-c4ccccc4)no3)O[C@@H]3O[C@@]4(C)CC[C@H]1[C@]32OO4 (some centres undefined) | 5.10 | 5.04 | 5.36 | 5.40
COc1ccc(-n2cc(C(=O)OC3O[C@@H]4O[C@@]5(C)CC[C@@H]6[C@H](C)CC[C@@H]([C@H]3C)[C@@]46OO5)nn2)cc1 (some centres undefined) | 5.08 | < 5.00 | 5.50 | 5.06
C[C@@H]1CC[C@H]2[C@@H](C)C(OC(=O)c3ccc(Cn4cccn4)cc3)O[C@@H]3O[C@@]4(C)CC[C@H]1[C@]32OO4 (some centres undefined) | < 5.00 | 5.15 | 5.64 | < 5.00
COc1ccc(-c2noc(CCC(=O)OC3O[C@@H]4O[C@@]5(C)CC[C@@H]6[C@H](C)CC[C@@H]([C@H]3C)[C@@]46OO5)n2)cc1 (some centres undefined) | < 5.00 | < 5.00 | 5.46 | 5.30
C[C@@H]1CC[C@H]2[C@@H](C)C(OC(=O)c3cc4ccccc4cn3)O[C@@H]3O[C@@]4(C)CC[C@H]1[C@]32OO4 (some centres undefined) | 5.32 | < 5.00 | 5.26 | < 5.00
CCCCCNC(=O)OC1O[C@@H]2O[C@@]3(C)CC[C@@H]4[C@H](C)CC[C@@H]([C@H]1C)[C@@]24OO3 (some centres undefined) | 5.85 | 5.12 | 5.74 | < 5.00
